Results as given in patent US20260083859A1, “SUSTAINED TRANSGENE EXPRESSION OF MODIFIED ERT2 PEPTIDE-SUICIDE PROTEIN FUSION POLYPEPTIDES” (Senti Biosciences, Inc., priority 2023, published 2026).

Tests used:
iPSCs = assay: Apoptosis induction in transfected iPSCs monitored by microscopy and Incucyte tracking; type: cell-based, human; conditions: unedited control cells, 1 nM 4-OHT, up to two days
[1] = system: PSC-derived microglial precursor cells or myeloid progenitor cells; assay: Apoptosis in PSC-derived microglial precursor cells or myeloid progenitor cells (Example 8); type: cell-based; conditions: cells from PSCs engineered with Table 3 constructs; 1, 5, 50 or 100 nM 4-OHT, or 5, 10, 50 or 100 nM Endoxifen
Protocol: To validate conservation of kill switch function after PSCs are differentiated to precursor cells or myeloid progenitor cells, PSCs engineered to incorporate the modified ERT2 peptide-suicide protein fusion polypeptide constructs outlined in Table 3 were differentiated into microglial precursor cells or myeloid progenitor cells. Thereafter PSC-derived microglial precursor cells or myeloid progenitor cells are treated with Endoxifen, 4-OHT or media alone and tested for incorporation of the modified ERT2 peptide-suicide protein fusion polypeptide in the STEL site.
To test function of the modified ERT2 peptide-suicide protein fusion polypeptide constructs in PSC-derived microglial precursor cells or myeloid progenitor cells, cells are cultured, then treated with either lnM, 5 nM, 50 nM, or 100 nM 4-OHT, or 5 nM, 10 nM, 50 nM, or 100 nM Endoxifen, before assessment of apoptosis.

[2] = system: PSC-derived dopaminergic neurons; assay: Apoptosis in PSC-derived dopaminergic neurons (Example 9); type: cell-based; conditions: neurons from PSCs engineered with Table 3 constructs; 1, 5, 50 or 100 nM 4-OHT, or 5, 10, 50 or 100 nM Endoxifen
Protocol: To validate conservation of kill switch function after PSCs are differentiated to dopaminergic neurons, PSCs engineered to incorporate the modified ERT2 peptide-suicide protein fusion constructs outlined in Table 3 are differentiated into dopaminergic neurons. Thereafter PSC-derived dopaminergic neurons are treated with Endoxifen, 4-OHT or media alone and tested for incorporation of the modified ERT2 peptide-suicide protein fusion polypeptide construct in the STEL site.
To test function of the modified ERT2 peptide-suicide protein fusion polypeptides in PSC-derived dopaminergic neurons, dopaminergic neurons are cultured, then treated with either lnM, 5 nM, 50 nM, or 100 nM 4-OHT; or 5 nM, 10 nM, 50 nM, or 100 nM Endoxifen, before assessment of apoptosis.

human iPSCs = assay: Conventional PCR (agarose gel) of knock-in iPSC pools, with or without 4-OHT; type: cell-based; conditions: iPSC pools treated with 1 nM 4-OHT
Protocol: Modified ERT2 peptide-suicide protein fusion polypeptide encoding constructs were delivered to human iPSCs via Nucleofection with a GAPDH targeting ribonucleoprotein (RNP) complex comprising of Cpf1 endonuclease and a single guide RNA (sgRNA) targeting the coding sequence of the GAPDH gene. The sgRNA comprised a sequence 5′ […] 3′ (SEQ ID NO: 60). Briefly, iPSCs were cultured in Essential 8 (E8) medium and maintained at 37° C. at 5% CO2 level between passages. Passages were done at 75 to 80% confluency. On the day of Nucleofection, iPSCs were thawed and immediately Nucleofected in Lonza P3 Primary Cell Nucleofection buffer. 7.5 μg of each plasmid construct (BRC00058-61) were Nucleofected into iPSCs using GAPDH Cpf1 RNP with LONZA 4D Nucleofector. The Nucleofected cells were then plated at 50,000 cells/cm^2 per well of a 6-well plate and grown in E8 medium (plus Rock inhibitor Y-27632 from Tocris) for 72 to 96 hours. Knock-in pools were screened for integration 7d post-Nucleofection using ddPCR, as well as conventional PCR.

iPSC clones = assay: Apoptotic efficacy in individual construct clones treated with 4-OHT, Endoxifen or combinations; type: cell-based, human; conditions: clone Construct 1 c.165
Protocol: Next, individual clones that were determined to be suitable for further assessments were evaluated for 24 hours in the presence of 4-OHT at two different concentrations.
Individual Construct 1-4 clones were also assessed for their responses to another tamoxifen metabolite, Endoxifen. Clones were evaluated for 24 hours in the presence of Endoxifen at three different concentrations.
Tamoxifen is a prodrug that is broken down into its active metabolites in vivo. To model predicted drug concentrations in a patient, the clone Construct 1 c.165 was treated with various combinations of 4-OHT and Endoxifen, wherein 1.25 nM Endoxifen was combined with a concentration of 4-OHT ranging between 0.125 nM to 1 nM (FIG. 12A). […] In the next evaluation, 0.125 nM 4-OHT was combined with either 0.625 or 1.25 nM Endoxifen (FIG. 12B).

[3] = system: PSC-derived myeloid progenitor cells; assay: TamCasp9 Safety Switch activation in PSC-derived myeloid progenitor cells, AOPI staining, Incucyte SX5; type: cell-based, human; conditions: unedited differentiated myeloid progenitors, combination 4-OHT and Endoxifen treatment
Protocol: A hPSC line engineered with TamCasp9 Construct 1 and an unedited parental control hPSC line were differentiated into myeloid progenitor cells through the addition of various growth factors and small molecules. Differentiated cells were plated at 1×10^5 cells/cm^2 in an ultra-low attachment cell culture plate for further myeloid cell maturation. After 7 days in maturation medium, cells were collected and frozen down.
For testing of TamCasp9 Safety Switch activation, myeloid cells were plated at 1.5×10^5 cells/cm^2 in a 96-well tissue culture plate with a 1:750 dilution of ViaStain AOPI Staining Solution (Nexcelom) in X-VIVO 15 Medium with 10 ng/mL GM-CSF. The kill switch was induced with 0, 1, 10 or 100 uM of Endoxifen over 3 days and images were collected every 6 hours on the Incucyte SX5 (Sartorius).
To better model predicted drug concentrations in a patient by testing activation of the kill switch against a range of tamoxifen metabolites, the PSC clone Construct 1 c.165, engineered to incorporate an exemplary modified ERT2 peptide-suicide protein fusion polypeptide construct (Table 3), was differentiated to myeloid progenitor cells as depicted in FIG. 13A. Differentiated cells were plated at 1×10^5 cells/cm^2 in an ultra-low attachment cell culture plate for further myeloid cell maturation. After 7 days in maturation medium, cells were collected and frozen down. For testing of TamCasp9 Safety Switch activation, myeloid cells were plated at 1.0×10^5 cells/cm^2 in a 96-well tissue culture plate with a 1:750 dilution of ViaStain AOPI Staining Solution (Nexcelom) in X-VIVO 15 Medium with 10 ng/mL GM-CSF. The kill switch was induced with varying concentrations of combination 4-OHT and Endoxifen treatment over 4 days and images were collected every 4 hours on the Incucyte SX5, with 12 hour timepoints plotted on a graph (Sartorius) (FIG. 14). Either 2.5 nM or 5 nM of Endoxifen was tested in combination with either 0.5 nM, 1 nM or 10 nM of 4-OHT. 100 nM Endoxifen was added as positive killing control as per FIG. 13E.

4-hydroxytamoxifen [Construct 4-OHT]
cell growth and density (iPSCs): no detectable effect on cell health and growth | apoptosis [1]: resulted in apoptosis | apoptosis [2]: resulted in apoptosis | amount of cells carrying integration of kill-switch fusion sequences (PCR band intensity) (human iPSCs): reduced the amount of cells that carried integration of the kill-switch fusion sequences at the GAPDH locus | lowest effective concentration in 4-OHT-Endoxifen combination (iPSC clones): 0.125 nM | apoptosis in unedited cells [3]: did not induce apoptosis
